From patent publication EP0246061A2, “A benzoylurea derivative and its production and use” (SUMITOMO CHEMICAL COMPANY, LIMITED, priority 1986, dated 1987)
Like-named read-outs stand apart in the source and are kept apart here.

Columns and labels:
Assay type in all cases: in vivo
[1] = system: common mosquito (Culex pipiens pallens); experiment: Emergence inhibition test on last instar larvae of common mosquito in aqueous dilute solution (Test example 1); conditions: active ingredient concentration 3.5 ppm in water; 20 last instar larvae; bred until emergence; two replications
Method: The emulsifiable concentrates of the following present compounds prepared according to Formulation example 1 were each diluted with water so that the active ingredient concentration was 3.5 ppm. Thereafter, 100 ml of the aqueous dilute solution thus obtained was put in a 180-ml polyethylene cup, and 20 last instar larvae of common mosquito (Culex pipiens pallens) were liberated therein. The larvae were bred on a bait until emergence to obtain an emergence inhibitory ratio (two replications).

[2] = system: tobacco cutworm (Spodoptera litura); experiment: Mortality test on fourth instar larvae of tobacco cutworm on treated artificial diet (Test example 2); conditions: 144 h; for mortality at 0.5 ppm: read-out: Concentration and mortality (%) 0.5 ppm; for mortality at […]: in Nicotiana tabacum, read-out: Concentration and mortality (%) […], 1.5 ppm, 2 ml on 13 g artificial diet, ten fourth instar larvae, after six days, two replications
Method: The emulsifiable concentrates of the following present compounds and controls prepared according to Formulation example 1 were each diluted with water to a prescribed concentration, and 2 ml of the aqueous dilute solution thus obtained was applied onto 13 g of artificial diet for tobacco cutworm (Spodoptera litura) which were then put in a polyethylene cup of 11 cm in diameter. Then, ten fourth instar larvae of tobacco cutworm were liberated therein. After six days, the dead and alive were examined to obtain mortality (two replications).

[3] = system: rice stem borer (Chilo suppressalis); experiment: Mortality test on 10-day old larvae of rice stem borer on treated artificial diet (Test example 3); conditions: 192 h, 67,000-fold dilution (1.5 ppm), 1 ml on 5 g artificial diet, ten 10-day old larvae, after eight days, two replications
Excerpt: Then, ten 10-day old larvae of rice stem borer were liberated therein. After eight days, the dead and alive were examined to obtain mortality (two replications).

[4] = system: diamond-back moth (Plutella xylostella) of a field strain; experiment: Emergence inhibition test on third instar larvae of diamond-back moth, cabbage leaf dipping (Test example 4); conditions: 200,000-fold dilution (0.5 ppm); cabbage leaf dipped 1 minute; ten third instar larvae; after nine days; corrected against untreated plot; two replications
Method: A circular cabbage leaf of 9.0 cm in diameter was dipped for 1 minute in the 200,000-fold aqueous dilute solutions each (corresponding to 0.5 ppm) of emulsifiable concentrates prepared from the following present compounds and controls according to Formulation example 1. After air-drying, the leaf was put in a polyethylene cup of 11 cm in diameter in which a filter paper was placed on the bottom, and ten third instar larvae of diamond-back moth (Plutella xylostella) of a field strain were liberated therein. After nine days, the number of emergence was examined to obtain an emergence inhibitory ratio (two replications).

[5] = 0.5 ppm, 2 ml on 13 g artificial diet, ten fourth instar larvae, after six days, two replications

| SMILES | Emergence inhibitory ratio (%) [1] | mortality at 0.5 ppm [2, 5] | mortality at […] [2] | mortality at […] [3] | Emergence inhibitory ratio (%) [4] | mortality at 0.5 ppm [2] |
| --- | --- | --- | --- | --- | --- | --- |
| O=C(NC(=O)c1c(F)cccc1F)Nc1ccc(C(F)(F)F)cc1F [(1), N-2,6-difluorobenzoyl-Nʹ-2-fluoro-4-trifluoromethylphenylurea] | 100% | 80% | 100% | 90% | 100% |  |
| CNC(=O)ON=C(C)SC [(D), Methomyl, reference compound] |  | 0% | 10% | 5% | 0% |  |
| O=C(NC(=O)c1c(F)cccc1F)Nc1cc(F)c(C(F)(F)C(F)(F)F)cc1F [(6), N-2,6-difluorobenzoyl-Nʹ-2,5-difluoro-4-pentafluoroethylphenylurea] | 100% | 100% | 100% | 80% | 100% |  |
| O=C(NC(=O)c1c(F)cccc1F)Nc1cc(Cl)c(C(F)(F)F)cc1F [(4), N-2,6-difluorobenzoyl-Nʹ-5-chloro-2-fluoro-4-trifluoromethylphenylurea] | 100% | 70% | 100% | 100% | 89% |  |
| O=C(NC(=O)c1c(F)cc(F)cc1F)Nc1ccc(C(F)(F)C(F)(F)F)cc1F [(10), N-2,4,6-trifluorobenzoyl-Nʹ-2-fluoro-4-pentafluoroethylphenylurea] | 100% | 100% | 100% | 80% | 100% |  |
| O=C(NC(=O)c1c(F)cccc1F)Nc1ccc(Cl)cc1 [(A), Diflubenzuron, reference compound] |  |  |  |  | 11% | 5% |
| O=C(NC(=O)c1c(F)cccc1F)Nc1ccc(Cl)cc1F [(E), reference compound] |  | 10% | 45% | 35% | 33% |  |
| O=C(NC(=O)c1c(F)cc(F)cc1F)Nc1cc(F)c(C(F)(F)C(F)(F)C(F)(F)F)cc1F [(8), N-2,4,6-trifluorobenzoyl-Nʹ-2,5-difluoro-4-heptafluoropropylphenylurea] | 100% |  |  | 80% | 73% |  |
| O=C(NC(=O)c1c(F)cccc1F)Nc1ccc(C(F)(F)C(F)(F)F)cc1F [(9), N-2,6-difluorobenzoyl-Nʹ-2-fluoro-4-pentafluoroethylphenylurea] | 100% | 100% | 100% | 90% | 100% |  |
| O=C(NC(=O)c1c(F)cccc1F)Nc1cc(Cl)c(F)c(Cl)c1F [(C), Teflubenzuron, reference compound] |  |  |  |  | 33% | 20% |
| O=C(NC(=O)c1c(F)cccc1F)Nc1cc(F)c(C(F)(F)F)cc1F [(2), N-2,6-difluorobenzoyl-Nʹ-2,5-difluoro-4-trifluoromethylphenylurea] | 100% | 100% | 100% | 100% | 100% |  |
| O=C(NC(=O)c1c(F)cc(F)cc1F)Nc1cc(F)c(C(F)(F)F)cc1F [(3), N-2,4,6-trifluorobenzoyl-Nʹ-2,5-difluoro-4-trifluoromethylphenylurea] | 100% | 100% | 100% | 90% | 89% |  |
| O=C(NC(=O)c1c(F)cccc1F)Nc1cc(Cl)cc(C(F)(F)F)c1Cl [(F), reference compound] |  | 20% | 60% | 10% | 22% |  |
| O=C(NC(=O)c1c(F)cccc1F)Nc1cc(F)c(C(F)(F)C(F)(F)C(F)(F)F)cc1F [(7), N-2,6-difluorobenzoyl-Nʹ-2,5-difluoro-4-heptafluoropropylphenylurea] | 100% | 100% | 100% | 100% | 100% |  |
| O=C(NC(=O)c1c(F)cc(F)cc1F)Nc1ccc(C(F)(F)F)cc1F [(5), N-2,4,6-trifluorobenzoyl-Nʹ-2-fluoro-4-trifluoromethylphenylurea] | 100% | 100% | 100% | 100% | 100% |  |
